Target: T1, V1 Receptor Subtype in Human Platelet (Homo sapiens, UniProt P37288)
T1 construct: tissue Hudson Valley Blood Services, Westchester Medical Center, Valhalla, N.Y; host or cells: human platelets (frozen platelet rich plasma)
Assay: Binding to Vasopressin V1 receptor subtype in Human Platelet Membranes;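 further: reported value is IC50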
Conditions: human platelet membranes
Method: Radioligand Binding Experiments with Human Platelet Membranes (a) Platelet Membrane Preparation: Frozen platelet rich plasma (PRP), (Platelet Source: Hudson Valley Blood Services, Westchester Medical Center, Valhalla, N.Y.) are thawed to room temperature. The tubes containing the PRP are centrifuged at 16,000×g for 10 min. at 4° C. and the supernatant fluid discarded. […] The suspension is recentrifuged at 16,000× g for 10 min. This washing step is repeated one more time. The wash discarded and the lysed pellets homogenized in low ionic strength buffer of Tris.HCl, 5.0 mM, pH 7.5 containing 5.0 mM EDTA. The homogenate is centrifuged at 39,000× g for 10 min. The resulting pellet is resuspended in Tris. […] The final pellet is resuspended in 50.0 mM Tris. HCl buffer pH 7.4 containing 120 mM NaCl and 5.0 mM KCl to give 1.0-2.0 mg protein per ml of suspension. […] Platelet Membranes […] Then add 20 μl of [^3 H]Ligand (Manning or […] Vasopressin), to give final concentrations ranging from 0.01 to 10.0 nM. Initiate the binding by adding 80.0 μl of platelet suspension (approx. 100 μg protein). Mix all reagents by pipetting the mixture up and down a few times. Non specific binding is measured in the presence of 1.0 μM of unlabeled ligand (Manning or […] Vasopressin). Let the mixture stand undisturbed at room temperature for ninety (90) min. Upon this time, rapidly filter off the incubate under vacuum suction over GF/B filters, using a Brandel Harvester. Determine the radioactivity caught on the filter disks by the addition of liquid scintillant and counting in a liquid scintillator.

T1 sequence (P37288 whole entry): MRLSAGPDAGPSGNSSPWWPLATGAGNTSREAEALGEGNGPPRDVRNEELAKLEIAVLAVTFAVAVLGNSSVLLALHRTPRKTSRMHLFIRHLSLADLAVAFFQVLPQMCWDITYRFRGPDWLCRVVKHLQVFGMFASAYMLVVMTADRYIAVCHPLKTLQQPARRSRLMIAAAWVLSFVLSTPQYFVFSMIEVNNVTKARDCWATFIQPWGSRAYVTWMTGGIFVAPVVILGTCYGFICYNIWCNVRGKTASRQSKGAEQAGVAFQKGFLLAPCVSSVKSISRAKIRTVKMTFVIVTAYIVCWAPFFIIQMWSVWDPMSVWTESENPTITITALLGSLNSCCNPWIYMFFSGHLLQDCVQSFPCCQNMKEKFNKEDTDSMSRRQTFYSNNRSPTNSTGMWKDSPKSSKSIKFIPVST

| IC50 [nM] | SMILES |
| --- | --- |
| 3 | COc1cc(C(=O)N2Cc3cccn3Cc3ccccc32)ccc1NC(=O)c1ccccc1C [Example 477, N-[4-(5H-pyrrolo[2,1-c][1,4]benzodiazepin-10(11H)-ylcarbonyl)-2-methoxy-phenyl]-2-methylbenzamide] |
| 26 | O=C(Nc1ccc(C(=O)N2Cc3cccn3Cc3ccccc32)c(Cl)c1)c1ccc(F)cc1Cl [Example 527, N-[4-(5H-pyrrolo[2,1-c][1,4]benzodiazepin-10(11H)-ylcarbonyl]-3-chlorophenyl]-4-fluoro-2-chlorobenzamide] |
| 23 | COc1cc(C(=O)N2Cc3cccn3Cc3ccccc32)ccc1NC(=O)c1cccc(F)c1C [Example 479, N-[4-(5H-pyrrolo[2,1-c][1,4]benzodiazepin-10(11H)-ylcarbonyl)-2-methoxy-phenyl]-3-fluoro-2-methylbenzamide] |
| 200 | O=C(Nc1ccc(C(=O)N2Cc3cccn3Cc3ccccc32)c(Cl)c1)c1ccccc1C(F)(F)F [Example 528, N-[4-(5H-pyrrolo[2,1-c][1,4]benzodiazepin-10(11H)-ylcarbonyl]-3-chlorophenyl]-2-(trifluoromethyl)benzamide] |
| 240 | O=C(Nc1ccc(C(=O)N2Cc3cccn3Cc3sccc32)cc1)c1ccc(Cl)cc1Cl [Example 274, N-(4-(5H-pyrrolo[1,2-a]thieno-[3,2-e][1,4]diazepin-4(10H)-ylcarbonyl)phenyl]-2,4-dichloro-benzamide] |
| 3 | Cc1ccccc1C(=O)Nc1ccc(C(=O)N2Cc3cccn3Cc3ccccc32)cc1Cl [Example 530, N-[4-(5H-Pyrrolo[2,1-c][1,4]benzodiazepin-10(11H)-ylcarbonyl)-2-chlorophenyl]-2-methylbenzamide] |
| 190 | O=C(Nc1ccc(C(=O)N2Cc3ccnn3Cc3ccccc32)cc1)c1ccc(Cl)cc1Cl [Example 217, N-[4-(4H-Pyrazolo[5,1-c][1,4]benzo-diazepin-5(10H)-ylcarbonyl)phenyl]-2,4-dichlorobenzamide] |
| 430 | Cc1cccc(C(=O)Nc2ccc(C(=O)N3Cc4cccn4Cc4ccccc43)c(Cl)c2)c1C [Example 525, N-[4-(5H-pyrrolo[2,1-c][1,4]benzodiazepin-10(11H)-ylcarbonyl]-3-chlorophenyl]-2,3-dimethylbenzamide] |
| 540 | O=C(Nc1ccc(C(=O)N2Cc3cccn3Cc3ccccc32)cc1)c1cc([N+](=O)[O-])ccc1Cl [Example 480, N-[4-(5H-pyrrolo[2,1-c][1,4]benzodiazepin-10(11H)-ylcarbonyl)phenyl]-2-chloro-5-nitrobenzamide] |
| 32 | COc1cc(C(=O)N2Cc3cccn3Cc3ccccc32)ccc1NC(=O)c1ccc(Cl)cc1Cl [Example 478, N-[4-(5H-pyrrolo[2,1-c][1,4]benzodiazepin-10(11H)-ylcarbonyl)-2-methoxy-phenyl]-2,4-dichlorobenzamide] |

Reference: patent US5624923A, “Tricyclic diazepine vasopressin antagonists and oxytocin antagonists” (priority 1995, dated 1997)
